Values quoted from earlier work as cited in patent US9895325B2, “Tablet composition comprising cinacalcet hydrochloride” (SYNTHON B.V., priority 2012, dated 2018).

Details: pH 1

solubility: approx. 0.1 mg/ml
SMILES: C[C@@H](NCCCc1cccc(C(F)(F)F)c1)c1cccc2ccccc12.Cl [Cinacalcet hydrochloride]
